Measurements reported in ChEMBL document CHEMBL5154838, “A pH-Dependent rhodamine fluorophore with antiproliferative activity of bladder cancer in Vitro/Vivo and apoptosis mechanism” (Eur J Med Chem, 2022).
pIC50: −log10 of the molar value. Activity calls are given as the source filed them. No cut-off for these calls is given here.

Assays:
[1] = test system: EJ; assay: Antiproliferative activity against human EJ cells after 24 hrs by CCK-8 assay; assay type: functional, cell-based
[2] = Fluorescence response in PBS solution at pH 3 to 9 assessed as higher sensitivity to fluorescence intensity at 2 uM; assay type: physicochemical; details: buffer, pH 3, 2 µM
[3] = test system: EJ; assay: Antiproliferative activity against human EJ cells assessed as inhibition of colony formation at 8.34 uM measured by colony formation assay; assay type: functional, cell-based
[4] = test system: EJ; assay: Induction of apoptosis in human EJ cells at 22.35 uM assessed as increase in Bax expression measured by Western blotting assay; assay type: functional, cell-based
[5] = test system: EJ; assay: Induction of apoptosis in human EJ cells at 22.35 uM assessed as increase in cleaved caspase-9 expression measured by Western blotting assay; assay type: functional, cell-based
[6] = test system: EJ; assay: Antitumor activity against human EJ cells xenografted in male nude mouse assessed as decrease in Ki-67 expression at 22.35 uM and measured at pH 7.5 by immunohistochemistry analysis; assay type: functional, cell-based
[7] = test system: EJ; assay: Antitumor activity against human EJ cells xenografted in male nude mouse assessed as reduction in tumor volume at 22.35 uM and measured at pH 6.5; assay type: functional, cell-based
[8] = test system: EJ; assay: Antiproliferative activity against human EJ cells assessed as inhibition of colony formation at 22.35 uM measured by colony formation assay; assay type: functional, cell-based
[9] = test system: EJ; assay: Antitumor activity against human EJ cells xenografted in male nude mouse assessed as reduction in tumor weight at 22.35 uM and measured at pH 6.5; assay type: functional, cell-based
[10] = test system: EJ; assay: Antitumor activity against human EJ cells xenografted in male nude mouse assessed as reduction in tumor weight at 22.35 uM and measured at pH 5.5; assay type: functional, cell-based
[11] = test system: EJ; assay: Antitumor activity against human EJ cells xenografted in male nude mouse assessed as increase in Bax expression at 22.35 uM and measured by Western blotting analysis; assay type: functional, cell-based
[12] = test system: EJ; assay: Antitumor activity against human EJ cells xenografted in male nude mouse assessed as reduction in tumor volume at 22.35 uM and measured at pH 8.5; assay type: functional, cell-based
[13] = test system: EJ; assay: Antiproliferative activity against human EJ cells at pH 7.5 assessed as LDH levels at 22.35 uM after 24 hrs relative to control; assay type: functional
[14] = test system: EJ; assay: Antiproliferative activity against human EJ cells at pH 6.5 assessed as cell viability at 22.35 uM after 24 hrs by CCK-8 assay relative to control; assay type: functional; details: read-out: Activity
[15] = test system: EJ; assay: Antitumor activity against human EJ cells xenografted in male nude mouse assessed as decrease in Ki-67 expression at 22.35 uM and measured at pH 5.5 by immunohistochemistry analysis; assay type: functional, cell-based
[16] = test system: EJ; assay: Antiproliferative activity against human EJ cells at pH 6.5 assessed as LDH levels at 22.35 uM after 24 hrs relative to control; assay type: functional
[17] = test system: EJ; assay: Antitumor activity against human EJ cells xenografted in male nude mouse assessed as reduction in tumor volume at 22.35 uM and measured at pH 7.5; assay type: functional, cell-based
[18] = test system: EJ; assay: Antitumor activity against human EJ cells xenografted in male nude mouse assessed as reduction in tumor volume at 22.35 uM and measured at pH 5.5; assay type: functional, cell-based
[19] = test system: EJ; assay: Antitumor activity against human EJ cells xenografted in male nude mouse assessed as increase in cleaved caspase-3 expression at 22.35 uM and measured by Western blotting analysis; assay type: functional, cell-based
[20] = test system: EJ; assay: Antitumor activity against human EJ cells xenografted in male nude mouse assessed as decrease in PCNA expression at 22.35 uM and measured at pH 8.5 by immunohistochemistry analysis; assay type: functional, cell-based
[21] = test system: EJ; assay: Antitumor activity against human EJ cells xenografted in male nude mouse assessed as reduction in tumor weight at 22.35 uM and measured at pH 8.5; assay type: functional, cell-based
[22] = test system: EJ; assay: Induction of apoptosis in human EJ cells at 22.35 uM assessed as increase in apoptosis rate measured by Annexin V-PE/7-AAD-based flow cytometry assay; assay type: functional, cell-based
[23] = test system: EJ; assay: Induction of apoptosis in human EJ cells at 22.35 uM assessed as increase in cleaved caspase-3 expression measured by Western blotting assay; assay type: functional, cell-based
[24] = test system: EJ; assay: Antitumor activity against human EJ cells xenografted in male nude mouse assessed as decrease in PCNA expression at 22.35 uM and measured at pH 5.5 by immunohistochemistry analysis; assay type: functional, cell-based
[25] = Antiproliferative activity against human SV-HUC-1 cells after 24 hrs by CCK-8 assay; assay type: functional, cell-based; details: SV-HUC1, 24 h
[26] = test system: EJ; assay: Antitumor activity against human EJ cells xenografted in male nude mouse assessed as decrease in PCNA expression at 22.35 uM and measured at pH 7.5 by immunohistochemistry analysis; assay type: functional, cell-based
[27] = test system: EJ; assay: Antitumor activity against human EJ cells xenografted in male nude mouse assessed as decrease in PCNA expression at 22.35 uM and measured at pH 6.5 by immunohistochemistry analysis; assay type: functional, cell-based
[28] = test system: EJ; assay: Antitumor activity against human EJ cells xenografted in male nude mouse assessed as reduction in tumor weight at 22.35 uM and measured at pH 7.5; assay type: functional, cell-based
[29] = test system: EJ; assay: Antiproliferative activity against human EJ cells at pH 7.5 assessed as cell viability at 22.35 uM after 24 hrs by CCK-8 assay relative to control; assay type: functional; details: read-out: Activity
[30] = test system: EJ; assay: Antitumor activity against human EJ cells xenografted in male nude mouse assessed as decrease in Ki-67 expression at 22.35 uM and measured at pH 6.5 by immunohistochemistry analysis; assay type: functional, cell-based
[31] = test system: EJ; assay: Antitumor activity against human EJ cells xenografted in male nude mouse assessed as increase in cleaved caspase-9 expression at 22.35 uM and measured by Western blotting analysis; assay type: functional, cell-based
[32] = test system: EJ; assay: Antitumor activity against human EJ cells xenografted in male nude mouse assessed as decrease in Ki-67 expression at 22.35 uM and measured at pH 8.5 by immunohistochemistry analysis; assay type: functional, cell-based

## CCNc1cc2c(cc1C)C1(c3cc(C)c(NCC)cc3O2)c2ccccc2C(=O)N1c1ccn([C@@H]2O[C@H](CO)[C@@H](O)C2(F)F)c(=O)n1
[1]
  pIC50: 5.08
[2]
  Activity: Active
[3]
  Activity: Active

## CCNc1cc2c(cc1C)C1(c3cc(C)c(NCC)cc3O2)c2ccccc2C(=O)N1C1CCC1
[2]
  Activity: Active

## CCNc1cc2c(cc1C)C1(c3cc(C)c(NCC)cc3O2)c2ccccc2C(=O)N1CC1CCOCC1
[2]
  Activity: Active

## CCNc1cc2c(cc1C)C1(c3cc(C)c(NCC)cc3O2)c2ccccc2C(=O)N1Cc1ccccn1
[4]
  Activity: Active
[5]
  Activity: Active
[1]
  pIC50: 4.65
[6]
  Activity: Active
[7]
  Activity: Active
[8]
  Activity: Active
[9]
  Activity: Active
[10]
  Activity: Active
[11]
  Activity: Active
[12]
  Activity: Active
[13]
  Activity: 26.4%
[14]
  viability at 22.35 µM: 68.4%
[15]
  Activity: Active
[16]
  Activity: 42.8%
[17]
  Activity: Active
[18]
  Activity: Active
[19]
  Activity: Active
[20]
  Activity: Active
[21]
  Activity: Active
[22]
  Activity: Active
[23]
  Activity: Active
[24]
  Activity: Active
[2]
  Activity: Active
[25]
  pIC50: 4.59
[26]
  Activity: Active
[27]
  Activity: Active
[28]
  Activity: Active
[29]
  viability at 22.35 µM: 83.2%
[30]
  Activity: Active
[31]
  Activity: Active
[32]
  Activity: Active

## CCNc1cc2c(cc1C)C1(c3cc(C)c(NCC)cc3O2)c2ccccc2C(=O)N1CC1CCCO1 (configuration not stated)
[2]
  Activity: Active
